Results as given in patent publication US5976848A, “Method of identifying potential fungicides using dihydroorotate dehydrogenase inhibition assay” (priority 1992, dated 1999).
Values after ≈ are worked out from the molar mass of the structure shown. “Also recorded” adds a separate entry of the source.

Columns and labels:
DHOD = DHOD in vitro tests; type: biochemical
Botrytis cinerea = assay: greenhouse tests against Botrytis cinerea; type: in vivo
Neurospora = assay: sensitivity of Neurospora to CCFQ; type: cell-based
Aspergillus nidulans [1] = assay: physiological and biochemical responses of Aspergillus nidulans treated with CCFQ; type: cell-based
Description: The physiological and biochemical responses caused by the experimental fungicide CCFQ are not characteristic of known modes of action. […] It causes an unusual effect on synthesis of nucleic acids in that incorporation of radiolabelled precursors is stimulated by treatment with CCFQ. […] Some media supplements overcame growth inhibition by CCFQ. […] All these observations are consistent with the primary target of CCFQ being an electron-transferring enzyme in the pyrimidine biosynthetic pathway. […] This is a novel fungicidal mode of action, and its discovery opens the opportunity to detect novel chemical compounds that attack the same target.

[2] = molecular target: T1, DHOD produced by mutant Aspergillus nidulans strains resistant to CCFQ (Aspergillus nidulans, UniProt G5EB61); assay: inhibition of DHOD produced by CCFQ-resistant mutant strains; type: biochemical; conditions: DHOD from resistant mutant A. nidulans
T1 construct: V200E (preferred, MNNG, FGSC612) or A115V (EMS, FGSC610)
T1 sequence (G5EB61 1-520): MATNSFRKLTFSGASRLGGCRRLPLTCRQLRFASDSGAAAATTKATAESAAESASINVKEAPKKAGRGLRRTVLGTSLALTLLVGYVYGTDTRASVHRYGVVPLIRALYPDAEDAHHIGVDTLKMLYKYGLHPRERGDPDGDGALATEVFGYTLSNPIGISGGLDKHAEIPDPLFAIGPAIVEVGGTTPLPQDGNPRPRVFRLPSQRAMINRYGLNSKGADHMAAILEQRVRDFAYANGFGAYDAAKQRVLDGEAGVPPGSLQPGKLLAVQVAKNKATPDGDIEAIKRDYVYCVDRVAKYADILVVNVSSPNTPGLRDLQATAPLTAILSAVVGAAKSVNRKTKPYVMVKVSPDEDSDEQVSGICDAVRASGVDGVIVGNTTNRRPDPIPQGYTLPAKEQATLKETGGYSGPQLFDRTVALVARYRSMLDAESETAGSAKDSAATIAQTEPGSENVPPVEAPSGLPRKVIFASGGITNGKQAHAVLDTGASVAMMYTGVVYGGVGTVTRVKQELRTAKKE

Penicillium digitalum = assay: greenhouse tests against Penicillium digitalum; type: in vivo
Aspergillus nidulans [3] = assay: growth inhibition of Aspergillus nidulans; type: cell-based
Cephalosiorium = assay: sensitivity of Cephalosporium to CCFQ; type: cell-based
[4] = treatment of Aspergillus nidulans

SMILES: Fc1ccc(Oc2ccnc3c(Cl)cccc23)c(Cl)c1 [CCFQ, 8-chloro-4-(2-chloro-4-fluorophenoxy)quinoline]
- sensitivity of DHOD to CCFQ (DHOD): extremely sensitive
- inhibition of Botrytis cinerea (Botrytis cinerea; 50 μg/ml, greenhouse tests): completely inhibits
- inhibition of growth of Botrytis cinerea (Botrytis cinerea; no concentration stated): completely inhibits
- sensitivity to CCFQ / growth inhibition (Neurospora): inhibits the growth; also recorded: sensitive
- reversal of growth inhibition by media supplements (Aspergillus nidulans [1]; combination of uracil and a free radical scavenger such as α-tocopherol): complete reversal
- change in amino acid content (Aspergillus nidulans [1]; [4]): no significant changes
- change in lipid composition (Aspergillus nidulans [1]; [4]): no significant changes
- change in protein accumulation (Aspergillus nidulans [1]; [4]): no significant changes
- change in respiration (Aspergillus nidulans [1]; [4]): no significant changes
- effect on cell wall synthesis (Aspergillus nidulans [1]; [4]): perturbs cell wall synthesis in a non-specific manner
- incorporation of radiolabelled precursors (synthesis of nucleic acids) (Aspergillus nidulans [1]; [4]): stimulated
- inhibition of DHOD of CCFQ-resistant mutant strains [2]: resistant to inhibition
- inhibition of Penicillium digitalum (Penicillium digitalum; 50 μg/ml, greenhouse tests): completely inhibits
- inhibition of growth of Penicillium digitalum (Penicillium digitalum; no concentration stated): completely inhibits
- IC50 (Aspergillus nidulans [3]; against Aspergillus nidulans, read-out: IC50 (concentration that inhibits growth by 50%)): 0.15 µg/mL (≈ 0.487 µM)
- inhibition of growth of Aspergillus (Aspergillus nidulans [3]; no concentration stated): inhibits the growth
- sensitivity to CCFQ / growth inhibition (Cephalosiorium): inhibits the growth; also recorded: sensitive
